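At the GI50, growth is halved. Definition used: TGI = concentration required for complete inhibition of growth.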
What was measured:
Test in all cases: inhibition of tumour cell growth, NCI panel, 384-well format
786-0 renal = system: 786-0 renal
A549 NSCLC = system: A549 NSCLC
ACHN renal = system: ACHN renal
BT-549 breast = system: BT-549 breast
CAKI-1 renal = system: CAKI-1 renal
CCRF-CEM leukemia = system: CCRF-CEM leukemia
COLO 205 colon = system: COLO 205 colon
DU-145 prostate = system: DU-145 prostate
EKVX NSCLC = system: EKVX NSCLC
HCC-2998 colon = system: HCC-2998 colon
HCT-116 colon = system: HCT-116 colon
HCT-15 colon = system: HCT-15 colon
HL-60(TB) leukemia = system: HL-60(TB) leukemia
HOP-62 NSCLC = system: HOP-62 NSCLC
HOP-92 NSCLC = system: HOP-92 NSCLC
HT29 colon = system: HT29 colon
IGROV1 ovarian = system: IGROV1 ovarian
K-562 leukemia = system: K-562 leukemia
KM12 colon = system: KM12 colon
LOX IMVI melanoma = system: LOX IMVI melanoma
M14 melanoma = system: M14 melanoma
MALME-3M melanoma = system: MALME-3M melanoma
MCF7 breast = system: MCF7 breast
MDA-MB-435 melanoma = system: MDA-MB-435 melanoma
MDA-MB-468 breast = system: MDA-MB-468 breast
MOLT-4 leukemia = system: MOLT-4 leukemia
NCI-H226 lung = system: NCI-H226 lung
NCI-H23 lung = system: NCI-H23 lung
NCI-H460 NSCLC = system: NCI-H460 NSCLC
NCI-H522 lung = system: NCI-H522 lung
NCI/ADR-RES ovarian = system: NCI/ADR-RES ovarian
OVCAR-3 ovarian = system: OVCAR-3 ovarian
OVCAR-4 ovarian = system: OVCAR-4 ovarian
OVCAR-5 ovarian = system: OVCAR-5 ovarian
OVCAR-8 ovarian = system: OVCAR-8 ovarian
PC-3 prostate = system: PC-3 prostate
RPMI-8226 leukemia = system: RPMI-8226 leukemia
RXF 393 renal = system: RXF 393 renal
SF-295 CNS = system: SF-295 CNS
SK-MEL-28 melanoma = system: SK-MEL-28 melanoma
SK-MEL-5 melanoma = system: SK-MEL-5 melanoma
SK-OV-3 ovarian = system: SK-OV-3 ovarian
SN12C renal = system: SN12C renal
SNB-19 CNS = system: SNB-19 CNS
SW-620 colon = system: SW-620 colon
T-47D breast = system: T-47D breast
TK-10 renal = system: TK-10 renal
U251 glioblastoma = system: U251 glioblastoma
UACC-257 melanoma = system: UACC-257 melanoma
UACC-62 melanoma = system: UACC-62 melanoma
UO-31 renal = system: UO-31 renal

## Cc1cc(-c2nc(-c3ccc(OC(F)(F)F)cc3)no2)nn1Cc1ccnc(N2CCN(C3CC3)CC2)c1
786-0 renal
  GI50: 4.88 µM
  TGI: > 100 µM
A549 NSCLC
  GI50: < 0.01 µM
  TGI: > 100 µM
ACHN renal
  GI50: 12.6 µM
  TGI: > 100 µM
BT-549 breast
  GI50: 2.06 µM
  TGI: 35.9 µM
CAKI-1 renal
  GI50: 14.9 µM
  TGI: > 100 µM
CCRF-CEM leukemia
  GI50: < 0.01 µM
  TGI: < 0.01 µM
COLO 205 colon
  GI50: 5.77 µM
  TGI: > 100 µM
DU-145 prostate
  GI50: 20.3 µM
  TGI: > 100 µM
EKVX NSCLC
  GI50: < 0.01 µM
  TGI: 62.6 µM
HCC-2998 colon
  GI50: 4.19 µM
  TGI: 20.2 µM
HCT-116 colon
  GI50: < 0.01 µM
  TGI: > 100 µM
HCT-15 colon
  GI50: 1.44 µM
  TGI: 18.8 µM
HL-60(TB) leukemia
  GI50: 1.73 µM
  TGI: 11 µM
HOP-62 NSCLC
  GI50: < 0.01 µM
  TGI: 20.7 µM
HOP-92 NSCLC
  GI50: 3.45 µM
  TGI: > 100 µM
HT29 colon
  GI50: 2.43 µM
  TGI: 12.3 µM
IGROV1 ovarian
  GI50: 9.15 µM
  TGI: > 100 µM
K-562 leukemia
  GI50: < 0.01 µM
  TGI: 44.9 µM
KM12 colon
  GI50: 5.2 µM
  TGI: 70.4 µM
LOX IMVI melanoma
  GI50: < 0.01 µM
  TGI: 14.1 µM
M14 melanoma
  GI50: 2.13 µM
  TGI: 7.15 µM
MALME-3M melanoma
  GI50: 4.82 µM
  TGI: 18.3 µM
MCF7 breast
  GI50: 0.47 µM
  TGI: 15.4 µM
MDA-MB-435 melanoma
  GI50: 5.96 µM
  TGI: > 100 µM
MDA-MB-468 breast
  GI50: < 0.01 µM
  TGI: < 0.01 µM
MOLT-4 leukemia
  GI50: < 0.01 µM
  TGI: 7.05 µM
NCI-H226 lung
  GI50: 4.01 µM
  TGI: > 100 µM
NCI-H23 lung
  GI50: < 0.01 µM
  TGI: 84.8 µM
NCI-H460 NSCLC
  GI50: < 0.01 µM
  TGI: < 0.01 µM
NCI-H522 lung
  GI50: < 0.01 µM
  TGI: > 100 µM
NCI/ADR-RES ovarian
  GI50: < 0.01 µM
  TGI: > 100 µM
OVCAR-3 ovarian
  GI50: 6.51 µM
  TGI: > 100 µM
OVCAR-4 ovarian
  GI50: 28.7 µM
  TGI: > 100 µM
OVCAR-5 ovarian
  GI50: 15.7 µM
  TGI: 86.1 µM
OVCAR-8 ovarian
  GI50: < 0.01 µM
  TGI: > 100 µM
PC-3 prostate
  GI50: 2.99 µM
  TGI: 66.9 µM
RPMI-8226 leukemia
  GI50: < 0.01 µM
  TGI: > 100 µM
RXF 393 renal
  GI50: < 0.01 µM
  TGI: < 0.01 µM
SF-295 CNS
  GI50: > 100 µM
  TGI: > 100 µM
SK-MEL-28 melanoma
  GI50: 12.9 µM
  TGI: 28.7 µM
SK-MEL-5 melanoma
  GI50: < 0.01 µM
  TGI: 2.24 µM
SK-OV-3 ovarian
  GI50: < 0.01 µM
  TGI: > 100 µM
SN12C renal
  GI50: 7.01 µM
  TGI: > 100 µM
SNB-19 CNS
  GI50: 10.9 µM
  TGI: > 100 µM
SW-620 colon
  GI50: 12.1 µM
  TGI: 89.7 µM
T-47D breast
  GI50: < 0.01 µM
  TGI: 1.5 µM
TK-10 renal
  GI50: 40.9 µM
  TGI: > 100 µM
U251 glioblastoma
  GI50: 1.83 µM
  TGI: > 100 µM
UACC-257 melanoma
  GI50: < 0.01 µM
  TGI: 3.31 µM
UACC-62 melanoma
  GI50: 9.33 µM
  TGI: 21.8 µM
UO-31 renal
  GI50: 15.7 µM
  TGI: > 100 µM

— PubChem BioAssay (NCI)
